Reference: PMC1871596, “Requirement of aggregation propensity of Alzheimer amyloid peptides for neuronal cell surface binding” (BMC Neuroscience, 2007)

B1: trypsin: protease (9590 units/mg) used to remove cell surface proteins from PC12 cells (protein, UniProt P00760 24-246, looked up)
Serine protease 1: IVGGYTCGANTVPYQVSLNSGYHFCGGSLINSQWVVSAAHCYKSGIQVRLGEDNINVVEGNEQFISASKSIVHPSYNSNTLNNDIMLIKLKSAASLNSRVASISLPTSCASAGTQCLISGWGNTKSSGTSYPDVLKCLKAPILSDSSCKSAYPGQITSNMFCAGYLEGGKDSCQGDSGGPVVCSGKLQGIVSWGSGCAQKNKPGVYTKVCNYVSWIKQTIASN

How the values were obtained:
[1] = unlabelled mutant; cited from earlier work
Source text: We also studied a double mutant (F19S/L34P) of Aβ42 (hereon referred to as 'mutant peptide'), which was discovered through a GFP-based screen for mutations that reduce the aggregation p ...

[2] = system: NGF differentiated PC12 cells; assay: Blocking the binding of Aβ42 to the surface of live PC12 cells (flow cytometry); assay type: cell-based, rat; conditions: cells pre-treated with the reagent, then TMR-labelled Aβ42 1.5 μM for 1-2 hours, trypsin 10 μg/mL 15 min then SBTI, Figure 6A
Procedure: NGF differentiated PC12 cells treated with Aβ (1.5 μM) were washed once with cold D-PBS, followed by mechanical detachment with D-PBS. Collected cells were centrifuged (200 × g for 1 minute) and resuspended in cold flow buffer containing 5 mM EDTA and 1% BSA (Fisher Scientific, Nepean, ON) in D-PBS. Samples were immediately analyzed with a FACS Calibur flow cytometer (Becton Dickinson, Mississauga, ON). TMR-labelled samples were detected with 585/42 filter collecting 5 × 10^4 events per sample using 100–300 events/s flow rate. Cell viability was assessed with 25 μg/mL 7-Aminoactinomycin D (7-AAD) treatment for 5 minutes and detected with a long pass 650 nm filter. Data collection and analysis were performed using Cell Quest version 3.3 and figures were created using WinMDI version 2.8 software.
Various treatments to block or remove lipid, carbohydrate, or protein components from the surface of live PC12 cells were performed and their effects on Aβ binding was examined. NGF differentiated PC12 cells were treated with 100 ng/mL FITC labelled annexin V (to block negatively charged phospholipids) or 10 μg/mL FITC labelled cholera toxin subunit B (to block GM1 ganglioside) for 20 minutes before addition of Aβ42 (final concentration 1.5 μM) for two hours. […] After Aβ42 addition, treated cells and untreated control cells were analyzed using flow cytometry.

| Molecule | aggregation state of the mutant [1] | effect of cell surface treatment on Aβ42 binding [2] |
| --- | --- | --- |
| DAEFRHDSGYEVHHQKLVSFAEDVGSNKGAIIGPMVGGVVIA [double mutant (F19S/L34P) of Aβ42, double mutant (F19S/L34P) of Aβ42 with reduced aggregation propensity, unlabelled] | soluble unstructured monomeric peptide |  |
| B1 |  | significantly decreased |
